PubChem BioAssay (NCI)
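Compound exposure: 48 hours, 5 concentrations, 96-well plates. GI50 = concentration required for 50% inhibition of growth. The concentration for full growth arrest is given as TGI.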

Legend:
Experiment in all cases: NCI anticancer screen, dose series, 48 h
PC-3 prostate = system: PC-3 prostate
UACC-62 melanoma = system: UACC-62 melanoma
CCRF-CEM leukemia = system: CCRF-CEM leukemia
HOP-92 NSCLC = system: HOP-92 NSCLC
SK-MEL-5 melanoma = system: SK-MEL-5 melanoma
T-47D breast = system: T-47D breast
OVCAR-4 ovarian = system: OVCAR-4 ovarian
U251 CNS = system: U251 CNS
HOP-62 NSCLC = system: HOP-62 NSCLC
SN12C renal = system: SN12C renal
NCI-H23 lung = system: NCI-H23 lung
OVCAR-5 ovarian = system: OVCAR-5 ovarian
M14 melanoma = system: M14 melanoma
HCC-2998 colon = system: HCC-2998 colon
786-0 renal = system: 786-0 renal
SF-539 CNS = system: SF-539 CNS
NCI-H460 lung = system: NCI-H460 lung
HCT-116 colon = system: HCT-116 colon
DU-145 prostate = system: DU-145 prostate
OVCAR-8 ovarian = system: OVCAR-8 ovarian
LOX IMVI melanoma = system: LOX IMVI melanoma
UO-31 renal = system: UO-31 renal
MDA-MB-435 = system: MDA-MB-435
MDA-MB-231 breast = system: MDA-MB-231 breast
IGROV1 ovarian = system: IGROV1 ovarian
RXF 393 renal = system: RXF 393 renal
COLO 205 colon = system: COLO 205 colon
A498 renal = system: A498 renal
SNB-19 CNS = system: SNB-19 CNS
HS 578T breast = system: HS 578T breast
SW-620 colon = system: SW-620 colon
HT29 colon = system: HT29 colon
SF-295 CNS = system: SF-295 CNS
TK-10 renal = system: TK-10 renal
BT-549 breast = system: BT-549 breast
HCT-15 colon = system: HCT-15 colon
SK-OV-3 ovarian = system: SK-OV-3 ovarian
A549 NSCLC = system: A549 NSCLC
SK-MEL-2 melanoma = system: SK-MEL-2 melanoma
KM12 colon = system: KM12 colon
EKVX NSCLC = system: EKVX NSCLC
UACC-257 melanoma = system: UACC-257 melanoma
SNB-75 CNS = system: SNB-75 CNS
ACHN renal = system: ACHN renal
HL-60(TB) leukemia = system: HL-60(TB) leukemia
MALME-3M melanoma = system: MALME-3M melanoma
MCF7 breast = system: MCF7 breast
CAKI-1 renal = system: CAKI-1 renal
NCI-H522 lung = system: NCI-H522 lung
RPMI-8226 leukemia = system: RPMI-8226 leukemia
SR leukemia = system: SR leukemia
MOLT-4 leukemia = system: MOLT-4 leukemia
OVCAR-3 ovarian = system: OVCAR-3 ovarian
SK-MEL-28 melanoma = system: SK-MEL-28 melanoma
NCI/ADR-RES ovarian = system: NCI/ADR-RES ovarian
SF-268 CNS = system: SF-268 CNS

CCN(CC)CCSCCCNc1c2ccc(Cl)cc2nc2ccc(OC)cc12
GI50 (PC-3 prostate): 1230 nM | TGI (PC-3 prostate): 3060 nM | GI50 (UACC-62 melanoma): 1930 nM | TGI (UACC-62 melanoma): 3870 nM | GI50 (CCRF-CEM leukemia): 1260 nM | TGI (CCRF-CEM leukemia): 4720 nM | GI50 (HOP-92 NSCLC): 1640 nM | TGI (HOP-92 NSCLC): 3410 nM | GI50 (SK-MEL-5 melanoma): 1800 nM | TGI (SK-MEL-5 melanoma): 3240 nM | GI50 (T-47D breast): 2050 nM | TGI (T-47D breast): 4820 nM | GI50 (OVCAR-4 ovarian): 756 nM | TGI (OVCAR-4 ovarian): 3030 nM | GI50 (U251 CNS): 1700 nM | TGI (U251 CNS): 3320 nM | GI50 (HOP-62 NSCLC): 558 nM | TGI (HOP-62 NSCLC): 2210 nM | GI50 (SN12C renal): 1040 nM | TGI (SN12C renal): 3480 nM | GI50 (NCI-H23 lung): 1320 nM | TGI (NCI-H23 lung): 3280 nM | GI50 (OVCAR-5 ovarian): 1140 nM | TGI (OVCAR-5 ovarian): 4390 nM | GI50 (M14 melanoma): 1710 nM | TGI (M14 melanoma): 3460 nM | GI50 (HCC-2998 colon): 1020 nM | TGI (HCC-2998 colon): 2420 nM | GI50 (786-0 renal): 1120 nM | TGI (786-0 renal): 2430 nM | GI50 (SF-539 CNS): 1400 nM | TGI (SF-539 CNS): 2970 nM | GI50 (NCI-H460 lung): 383 nM | TGI (NCI-H460 lung): 1580 nM | GI50 (HCT-116 colon): 488 nM | TGI (HCT-116 colon): 2070 nM | GI50 (DU-145 prostate): 633 nM | TGI (DU-145 prostate): 3010 nM | GI50 (OVCAR-8 ovarian): 1000 nM | TGI (OVCAR-8 ovarian): 3540 nM | GI50 (LOX IMVI melanoma): 337 nM | TGI (LOX IMVI melanoma): 1340 nM | GI50 (UO-31 renal): 1270 nM | TGI (UO-31 renal): 3290 nM | GI50 (MDA-MB-435): 1460 nM | TGI (MDA-MB-435): 2890 nM | GI50 (MDA-MB-231 breast): 1010 nM | TGI (MDA-MB-231 breast): 3000 nM | GI50 (IGROV1 ovarian): 1560 nM | TGI (IGROV1 ovarian): 4740 nM | GI50 (RXF 393 renal): 925 nM | TGI (RXF 393 renal): 2380 nM | GI50 (COLO 205 colon): 800 nM | TGI (COLO 205 colon): 2250 nM | GI50 (A498 renal): 654 nM | TGI (A498 renal): 2160 nM | GI50 (SNB-19 CNS): 1250 nM | TGI (SNB-19 CNS): 4880 nM | GI50 (HS 578T breast): 2120 nM | TGI (HS 578T breast): 5280 nM | GI50 (SW-620 colon): 511 nM | TGI (SW-620 colon): 3330 nM | GI50 (HT29 colon): 423 nM | TGI (HT29 colon): 1940 nM | GI50 (SF-295 CNS): 1130 nM | TGI (SF-295 CNS): 2760 nM | GI50 (TK-10 renal): 1550 nM | TGI (TK-10 renal): 3870 nM | GI50 (BT-549 breast): 1770 nM | TGI (BT-549 breast): 3500 nM | GI50 (HCT-15 colon): 433 nM | TGI (HCT-15 colon): 2360 nM | GI50 (SK-OV-3 ovarian): 1560 nM | TGI (SK-OV-3 ovarian): 3920 nM | GI50 (A549 NSCLC): 980 nM | TGI (A549 NSCLC): 3030 nM | GI50 (SK-MEL-2 melanoma): 2060 nM | TGI (SK-MEL-2 melanoma): 3870 nM | GI50 (KM12 colon): 802 nM | TGI (KM12 colon): 5030 nM | GI50 (EKVX NSCLC): 1730 nM | TGI (EKVX NSCLC): 4720 nM | GI50 (UACC-257 melanoma): 2060 nM | TGI (UACC-257 melanoma): 3850 nM | GI50 (SNB-75 CNS): 1280 nM | TGI (SNB-75 CNS): 2720 nM | GI50 (ACHN renal): 719 nM | TGI (ACHN renal): 3050 nM | GI50 (HL-60(TB) leukemia): 1550 nM | TGI (HL-60(TB) leukemia): 4110 nM | GI50 (MALME-3M melanoma): 2030 nM | TGI (MALME-3M melanoma): 3730 nM | GI50 (MCF7 breast): 791 nM | TGI (MCF7 breast): 3260 nM | GI50 (CAKI-1 renal): 1230 nM | TGI (CAKI-1 renal): 3450 nM | GI50 (NCI-H522 lung): 1390 nM | TGI (NCI-H522 lung): 3130 nM | GI50 (RPMI-8226 leukemia): 1300 nM | TGI (RPMI-8226 leukemia): 4780 nM | GI50 (SR leukemia): 976 nM | TGI (SR leukemia): 4840 nM | GI50 (MOLT-4 leukemia): 435 nM | TGI (MOLT-4 leukemia): 3940 nM | GI50 (OVCAR-3 ovarian): 1300 nM | TGI (OVCAR-3 ovarian): 4180 nM | GI50 (SK-MEL-28 melanoma): 1840 nM | TGI (SK-MEL-28 melanoma): 3800 nM | GI50 (NCI/ADR-RES ovarian): 1150 nM | TGI (NCI/ADR-RES ovarian): 3700 nM | GI50 (SF-268 CNS): 1060 nM | TGI (SF-268 CNS): 3010 nM
